In US9771333B2, “Quinazoline derivatives as TAM family kinase inhibitors” (SIGNALCHEM LIFESCIENCES CORP., priority 2013, dated 2017):

Tests used:
Assay type in all cases: biochemical
human Mer = biological target: T1, human Mer (Homo sapiens, UniProt Q12866); assay: Kinase enzymatic activity assay (33P-radiolabeled phosphate transfer), Mer; details: recombinant human Mer (578-872), poly(4:1 glu:tyr) substrate, 30 minutes
T1 construct: GST (N); made in house; host or cells: Sf9 insect cells (baculovirus)
T1 sequence (Q12866 578-872): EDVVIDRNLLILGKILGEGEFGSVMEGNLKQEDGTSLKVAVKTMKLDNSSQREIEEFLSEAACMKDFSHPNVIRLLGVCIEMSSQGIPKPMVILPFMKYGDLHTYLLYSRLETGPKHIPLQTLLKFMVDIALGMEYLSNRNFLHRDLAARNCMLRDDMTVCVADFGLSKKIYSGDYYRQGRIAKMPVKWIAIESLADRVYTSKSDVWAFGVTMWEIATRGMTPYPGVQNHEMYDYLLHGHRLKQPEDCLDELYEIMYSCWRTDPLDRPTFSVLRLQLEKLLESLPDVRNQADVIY
From the text: (§1) The identification of compounds of the invention as Tyro3, Axl or Mer inhibitors was readily accomplished using the recombinant human Tyro3, Axl and Mer proteins and employing the ^33P-radiolabeled phosphate transfer assay for which the procedure is known to someone skilled in the art or as described in Example 9.
(§2) Recombinant human Tyro3 (455-end, the gene accession number NM_006293), human Axl (473-end, the gene accession number NM_021913) and human Mer (578-872, the gene accession number NM_006343) were independently expressed by baculovirus in Sf9 insect cells using an N-terminal GST tag. The recombinant proteins were stored at −70° C. in a medium containing 50 mM Tris-HCl, pH 7.5, 150 mM NaCl, 10 mM glutathione, 0.1 mM EDTA, 0.25 mM DTT, 0.1 mM PMSF and 25% glycerol. The recombinant proteins were aliquoted into smaller quantities after centrifugation to avoid repeated handling and multiple freeze/thaw cycles for the most favorable performance.
(§3) Kinase Assay Buffer: This buffer solution consisted of the following components: 25 mM MOPS, pH 7.2, 12.5 mM β-glycerol-phosphate, 25 mM MgCl2, 5 mM EGTA, 2 mM EDTA and DTT 0.25 mM which was added prior to use.
(§4) Kinase Dilution Buffer: Kinase Assay Buffer was diluted at a 1:4 ratio (5× dilution) with distilled water.
(§5) [^33P]-ATP assay cocktail: In a designated radioactive working area, a 250 μM [^33P]-ATP assay cocktail was prepared by the addition of the following components: 150 μL of 10 mM ATP stock solution, 100 μL [^33P]-ATP (1 mci/100 μL), and 5.75 mL of kinase assay buffer. This solution was stored in 1 mL aliquots at −20° C.
(§6) ATP stock solution (10 mM): The ATP stock solution was prepared by dissolving 55 mg of ATP in 10 mL of kinase assay buffer. It was stored in 200 μL aliquots at −20° C.
(§7) Active Kinase Stock Solution: The active recombinant kinase protein (0.1 μg/μL) was diluted with Kinase Dilution Buffer and the activity was assayed using a serial dilution method. The specific activity is expressed in nmoL/min/mg.
(§8) Substrates: poly(4:1 glu:tyr) is the substrate used for each kinase Tyro3, Axl and Mer: The peptide substrate was dissolved in water to give the final concentration of 1 mg/mL.
(§9) Test compound solution: Test compound was dissolved in DMSO to obtain a 10 mM solution. The assay solution was prepared by adding 5 μL of this solution to […] of 10% DMSO/water to obtain the final concentration of 50 μM.
(§10) The enzymatic activity of all three kinases was determined as follows. Using a 96-well plate, the wells were divided into three categories: Blank wells, […] and Test wells. In Test wells, 5 μL of the test compound solution and 5 μL of the substrate solution were added. In Control wells, 5 μL of 10% DMSO/water and 5 μL of the substrate solution were added. In Blank wells, 10 μL of 10% DMSO/water was added. To each well was added 10 μL of Active Kinase Stock Solution to make up the volume in each well to 20 μL. All test samples, controls and blanks were run in duplicate. The reaction was initiated by the addition of 5 μL of [^33P]-ATP assay cocktail, bringing the final volume up to 25 μL in every well. The mixture was incubated at room temperature for 30 minutes. The reaction was terminated by transferring 10 μL of the reaction mixture into a Millipore MultiScreen filter plate (cat. number MSPHN6B50). The filter plate was washed in a 1% phosphoric acid solution with constant gentle shaking for 15 minutes and this step was repeated once. After the plate was dried in air, scintillation fluid was added to each well and the radioactivity in each well in CPM was counted by a Microbeta TriLux. The corrected CPM in each test well was determined by subtracting the average value of Blank well values. Percentage of inhibition of the kinase enzymatic activity by the test compound was determined using the following formula: […]
(§11) The IC50 values were determined in a similar way following a serial dilution of the test compound. […]

human Axl = biological target: T2, human Axl (Homo sapiens, UniProt P30530); assay: Kinase enzymatic activity assay (33P-radiolabeled phosphate transfer), Axl; details: recombinant human Axl (473-end), poly(4:1 glu:tyr) substrate, 30 minutes
T2 construct: GST (N); made in house; host or cells: Sf9 insect cells (baculovirus)
T2 sequence (P30530 473-894 limits assumed): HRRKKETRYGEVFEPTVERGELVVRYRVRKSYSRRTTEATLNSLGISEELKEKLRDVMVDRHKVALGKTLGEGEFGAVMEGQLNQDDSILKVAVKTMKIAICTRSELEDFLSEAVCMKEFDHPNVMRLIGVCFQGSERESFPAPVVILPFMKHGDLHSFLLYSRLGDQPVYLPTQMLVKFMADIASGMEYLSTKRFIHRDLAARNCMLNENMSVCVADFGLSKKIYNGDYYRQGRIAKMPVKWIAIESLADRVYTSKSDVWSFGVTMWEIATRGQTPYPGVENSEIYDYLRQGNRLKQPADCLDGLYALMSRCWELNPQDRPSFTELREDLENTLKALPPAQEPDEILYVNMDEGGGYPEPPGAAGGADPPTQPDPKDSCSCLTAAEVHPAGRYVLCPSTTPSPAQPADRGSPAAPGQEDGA
From the text: as §1, §2, §3, §4, §5, §6, §7, §8, §9, §10, §11

human Tyro3 = biological target: T3, human Tyro3 (Homo sapiens, UniProt Q06418); assay: Kinase enzymatic activity assay (33P-radiolabeled phosphate transfer), Tyro3; details: recombinant human Tyro3 (455-end), poly(4:1 glu:tyr) substrate, 30 minutes
T3 construct: GST (N); made in house; host or cells: Sf9 insect cells (baculovirus)
T3 sequence (Q06418 455-890 limits assumed): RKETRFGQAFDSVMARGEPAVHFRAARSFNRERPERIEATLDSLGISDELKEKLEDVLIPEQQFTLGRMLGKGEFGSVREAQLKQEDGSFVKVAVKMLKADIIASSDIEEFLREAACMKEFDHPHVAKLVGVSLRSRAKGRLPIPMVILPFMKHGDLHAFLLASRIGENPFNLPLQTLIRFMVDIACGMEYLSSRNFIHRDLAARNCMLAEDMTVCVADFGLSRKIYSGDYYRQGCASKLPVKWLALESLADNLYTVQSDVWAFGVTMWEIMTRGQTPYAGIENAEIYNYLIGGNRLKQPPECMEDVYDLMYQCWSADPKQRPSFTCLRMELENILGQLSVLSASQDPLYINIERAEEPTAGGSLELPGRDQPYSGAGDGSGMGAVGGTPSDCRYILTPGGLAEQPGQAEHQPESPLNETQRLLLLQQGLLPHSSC
From the text: as §1, §2, §3, §4, §5, §6, §7, §8, §9, §10, §11

Structure (SMILES) | IC50 (human Mer) | IC50 (human Axl) | IC50 (human Tyro3)
COCCN1CCN(c2cc(OC3CCOCC3)c3c(Nc4nc(C(F)(F)F)cs4)ncnc3c2)CC1 [Example 2.41, N-(7-(4-(2-methoxyethyl)piperazin-1-yl)-5-((tetrahydro-2H-pyran-4-yl)oxy)quinazolin-4-yl)-4-(trifluoromethyl)thiazol-2-amine] | > 10000 nM | 1000 to 10000 nM | > 10000 nM
Cc1cnc(Nc2ncnc3cc(OCC4CCN(C)CC4)cc(OC4CCOCC4)c23)s1 [Example 2.43, 5-methyl-N-(7-((1-methylpiperidin-4-yl)methoxy)-5-((tetrahydro-2H-pyran-4-yl)oxy)quinazolin-4-yl)thiazol-2-amine] | < 500 nM | < 500 nM | 1000 to 10000 nM
CC(C)Oc1ncnc2cc(OCC3CCN(C)CC3)cc(OC3CCOCC3)c12 [Example 6, 4-isopropoxy-7-((1-methylpiperidin-4-yl)methoxy)-5-((tetrahydro-2H-pyran-4-yl)oxy)quinazoline] | < 500 nM | < 500 nM | < 500 nM
Cc1nc(Sc2ncnc3cc(OCC4CCN(C)CC4)cc(OC4CCOCC4)c23)oc1C [Example 2.49, 4,5-dimethyl-2-((7-((1-methylpiperidin-4-yl)methoxy)-5-((tetrahydro-2H-pyran-4-yl)oxy)quinazolin-4-yl)thio)oxazole] | > 10000 nM | > 10000 nM | 1000 to 10000 nM
COc1cc(OCC2CCN(C)CC2)cc2ncnc(Oc3ccc(F)cc3Cl)c12 [Example 2.34, 4-(2-chloro-4-fluorophenoxy)-5-methoxy-7-((1-methylpiperidin-4-yl)methoxy)quinazoline] | 500 to 1000 nM | 1000 to 10000 nM | < 500 nM
Cc1nnc(Sc2ncnc3cc(OCC4CCN(C)CC4)cc(OC4CCOCC4)c23)s1 [Example 2.48, 2-methyl-5-((7-((1-methylpiperidin-4-yl)methoxy)-5-((tetrahydro-2H-pyran-4-yl)oxy)quinazolin-4-yl)thio)-1,3,4-thiadiazole] | > 10000 nM | 500 to 1000 nM | > 10000 nM
Cc1cc(Nc2ncnc3cc(OCC4CCN(C)CC4)cc(OC4CCOCC4)c23)on1 [Example 2.40, 3-methyl-N-(7-((1-methylpiperidin-4-yl)methoxy)-5-((tetrahydro-2H-pyran-4-yl)oxy)quinazolin-4-yl)isoxazol-5-amine] | 1000 to 10000 nM | < 500 nM | 1000 to 10000 nM
COCCOc1cc(OCCN2CCN(C)CC2)cc2ncnc(Sc3cc(Cl)cc(Cl)c3)c12 [Example 4.2, 4-((3,5-dichlorophenyl)thio)-5-(2-methoxyethoxy)-7-(2-(4-methylpiperazin-1-yl)ethoxy)quinazoline] | > 10000 nM | 1000 to 10000 nM | 1000 to 10000 nM

Further lines, results first:

IC50 (human Mer) | IC50 (human Axl) | IC50 (human Tyro3) | Structure (SMILES)
> 10000 nM | 1000 to 10000 nM | 500 to 1000 nM | CN1CCN(CCOc2cc(OC3CCOCC3)c3c(Oc4cccc(CC(=O)NCc5ccccc5)c4)ncnc3c2)CC1 [Example 2.33, N-benzyl-2-(3-((7-(2-(4-methylpiperazin-1-yl)ethoxy)-5-((tetrahydro-2H-pyran-4-yl)oxy)quinazolin-4-yl)oxy)phenyl)acetamide]
500 to 1000 nM | 1000 to 10000 nM | 500 to 1000 nM | CN(C)CCN(C)CCOc1cc(OC2CCOCC2)c2c(Oc3ccc(F)cc3Cl)ncnc2c1 [Example 2.15, N^1-(2-((4-(2-chloro-4-fluorophenoxy)-5-((tetrahydro-2H-pyran-4-yl)oxy)quinazolin-7-yl)oxy)ethyl)-N^1,N^2,N^2-trimethylethane-1,2-diamine]
> 10000 nM | > 10000 nM | 500 to 1000 nM | COCCOc1cc(OCCN2CCN(C)CC2)cc2ncnc(Sc3ccc(F)cc3)c12 [Example 4.1, 4-((4-fluorophenyl)thio)-5-(2-methoxyethoxy)-7-(2-(4-methylpiperazin-1-yl)ethoxy)quinazoline]
> 10000 nM | 1000 to 10000 nM | > 10000 nM | CN1CCN(CCOc2cc(OC3CCOCC3)c3c(Oc4cccc(C(=O)NCc5ccccc5)c4)ncnc3c2)CC1 [Example 2.32, N-benzyl-3-((7-(2-(4-methylpiperazin-1-yl)ethoxy)-5-((tetrahydro-2H-pyran-4-yl)oxy)quinazolin-4-yl)oxy)benzamide]
> 10000 nM | 1000 to 10000 nM | < 500 nM | COCCOc1cc(OCCN2CCN(C)CC2)cc2ncnc(Sc3ccc(F)c(Br)c3)c12 [Example 4.5, 4-((3-bromo-4-fluorophenyl)thio)-5-(2-methoxyethoxy)-7-(2-(4-methylpiperazin-1-yl)ethoxy)quinazoline]
< 500 nM | 1000 to 10000 nM | < 500 nM | CN(C)CCOCCOc1cc(OC2CCOCC2)c2c(Oc3ccc(F)cc3Cl)ncnc2c1 [Example 2.2, 2-(2-((4-(2-chloro-4-fluorophenoxy)-5-((tetrahydro-2H-pyran-4-yl)oxy)quinazolin-7-yl)oxy)ethoxy)-N,N-dimethylethanamine]
1000 to 10000 nM | 1000 to 10000 nM | > 10000 nM | Cc1nnc(Nc2ncnc3cc(OCCCN4CCOCC4)cc(OC4CCOCC4)c23)s1 [Example 2.20, 5-methyl-N-(7-(3-morpholinopropoxy)-5-((tetrahydro-2H-pyran-4-yl)oxy)quinazolin-4-yl)-1,3,4-thiadiazol-2-amine]
